Measured values from PMC3828334, “Tumor Cell Death Mediated by Peptides That Recognize Branched Intermediates of DNA Replication and Repair” (PLoS ONE, 2013).
Positions of bridges follow the written chain, without caps; N, C: chain ends. Non-standard residues stand in square brackets, D forms with d. Residues, ends and D or L forms follow the SMILES beside them. Chains are numbered I, II in the order given.

Legend:
Type in all cases: cell-based
DuPro-1 cells = conditions: MTT, DuPro-1 cells, 48 h
PPC-1 cells = assay: MTT assay of cell viability, PPC-1; conditions: 48 h
HeLa cells = assay: TUNEL assay, HeLa, with z-VAD-fmk or z-FA-fmk; conditions: 24 h
Experimental: (§1) 600,000 PC3 cells or 500,000 HeLa cells were plated in 60-mm dishes or 6-well plates respectively to allow them to attach overnight at 37°C with 5% CO2. PC3 cells were subsequently treated with appropriate treatments for 24, 36 and 48 h while HeLa cells were treated with 1 µl of either the caspase inhibitor z-VAD-fmk or z-FA-fmk (both from Biovision), containing appropriate treatments, for 24 h. The cells were fixed with 4% paraformaldehyde for 30 min and permeabilized with 0.1% Triton X-100 in 0.1% sodium citrate buffer for 3 mins. Labeled dUTP were added along with the terminal deoxynucleotidyl transferase dUTP nick end labeling (TUNEL) (TUNEL kit from Roche) as described in the kit. Samples were analyzed using a Becton Dickinson FACS Canto flow cytometer as specified above.

Du145 cells = conditions: 24 h
[1] = system: Htog1 cells (variant of HeLa cells); assay: Cytochrome C release / TMRE assay for apoptosis; conditions: 24 h, confocal microscopy
Experimental: 200,000 Htog1 cells (variant of HeLa cells, a generous gift from Drs. Terrence Frey and Maria Guo) were seeded on cover slips mounted on 35 mm microwell petri dishes (Mattek Corp, Ashland, MA) with DMEM supplemented with 10% FBS and allowed to attach overnight at 37°C in 5% CO2. The media was replaced with 1 ml of the appropriate treatment and incubated for 24 h. After 23 h of treatment, 50 µM tetramethyl rhodamine ethyl ester perchlorate (TMRE) solution was added to each well (final concentration 50 nM) and incubated for the remaining hour. Cytochrome C release and loss of TMRE staining were determined in Z-series images acquired using a Leica TCS SP2 inverted confocal microscope. GFP was excited using 488 nm wavelength from an Ar/Kr laser attenuated to 33%, and the emitted fluorescence detected at 497–553 nm. TMRE fluorescence was excited using a 543 nm wavelength from an Ar/Kr laser attenuated to 35%, and the emitted fluorescence detected at 555–620 nm. Each cell was analyzed for release of GFP (GFP channel), loss of mitochondrial membrane potential (TMRE loss) or morphological abnormalities associated with apoptosis, and the % cells positive for each hallmark was calculated for the various treatments.

PC3 cells = assay: TUNEL assay, PC3; conditions: PC3, 150 µM, 48 h
Experimental: as §1

53BP1 in PC3 cells = assay: 53BP1 foci by fluorescence microscopy; conditions: PC3, 48 h
Experimental: 200,000 PC3 cells were plated on cover-slips (Fisherbrand) mounted on each well of the 12-well dishes and allowed to attach overnight at 37°C incubator with 5% CO2. The cells were treated with 50, 100, 150, or 200 µM of wrwycr, or 1, 5, 10, 25, or 50 µM of wrwyrggrywrw for 48 h. […] The samples were probed with 1∶500 diluted mouse anti-γH2AX antibody (Millipore) or 1∶1000 diluted rabbit anti-53BP1 (Novus-Biologicals) with overnight incubation followed by Dylight anti-mouse or anti-rabbit secondary antibodies (Biolegend) respectively. DAPI (5 µg/ml) was used to stain the nucleus. The stained cells on the coverslips were mounted on the glass slides and observed with a Zeiss inverted microscope with AxioVision 4.8 software and using the 100× magnification. Foci of 53BP1 were counted manually and the average number of foci per cell was calculated.

caspase-3 in PC3 cells = assay: Caspase-3 assay (Ac-DEVD-AFC cleavage); conditions: PC3, 50–200 µM, 12–48 h
Experimental: 400,000 PC3 cells were plated in a 6-well plate (BD Falcon) at a concentration of 200,000 cells/ml and were allowed to attach overnight at 37°C with 5% CO2 and treated with 50–200 µM wrwycr for 12, 24 or 48 h. The wrwycr-treated cell lysates were incubated with Ac-DEVD (Asp-Glu-Val-Asp)-AFC, a caspase-3 substrate, for 1 h. Activated caspase-3 will cleave between the DEVD and AFC, releasing latter, a fluorogenic compound that can be excited at 400 nm and the resulting emission can be read at 505 nm by the Spectra Max Gemini XS fluorometer plate reader using Softmax Pro version 3.1.2 software. The total protein concentration was calculated for each sample by using BioRad protein assay kit. To normalize the fluorescence reading (RFU) for each sample, the reading for each sample was divided by the corresponding protein concentration of the samples.

IC50 (Du145 cells): 150 to 200 µM
Structure (SMILES): N=C(N)NCCC[C@@H](NC(=O)[C@@H](CSSC[C@@H](NC(=O)[C@@H](Cc1ccc(O)cc1)NC(=O)[C@@H](Cc1c[nH]c2ccccc12)NC(=O)[C@@H](CCCNC(=N)N)NC(=O)[C@H](N)Cc1c[nH]c2ccccc12)C(=O)N[C@H](CCCNC(=N)N)C(N)=O)NC(=O)[C@@H](Cc1ccc(O)cc1)NC(=O)[C@@H](Cc1c[nH]c2ccccc12)NC(=O)[C@@H](CCCNC(=N)N)NC(=O)[C@H](N)Cc1c[nH]c2ccccc12)C(N)=O [wrwycr, Trp-Arg-Trp-Tyr-Cys-Arg] (I: H-[dW][dR][dW][dY][dC][dR]-NH2 / II: H-[dW][dR][dW][dY][dC][dR]-NH2; disulfide I:5-II:5; N-terminus assumed)
IC50 (DuPro-1 cells): the same IC50 as the PC3 cell line
IC50 (PPC-1 cells): the same IC50 as the PC3 cell line
TUNEL-positive cells (HeLa cells; 100 µM wrwycr): 13%
TUNEL positive cells with caspase inhibitor z-VAD-fmk versus mock inhibitor z-FA-fmk (HeLa cells): No significant difference
cytochrome C release or loss of TMRE [1]: little or no cytochrome C release or loss of TMRE
TUNEL positive cell population (PC3 cells): 65%
accumulation of 53BP1 foci (53BP1 in PC3 cells): accumulation of 53BP1 protein in a dose-dependent manner
caspase-3 activation compared to DMSO control (caspase-3 in PC3 cells): no significant activation of caspase-3
